Source: article PMC10233829 (ACS Omega, 2023)
≈ marks a conversion by molar mass, not a printed value. Where “and” joins values, the source holds several entries; their conditions need not be identical. Equal values may be shown once.

Experiments:
S. aureus DNA gyrase = S. aureus DNA gyrase (Staphylococcus aureus, UniProt P0A0K8+P20831); assay: biochemical; conditions: supercoiling of relaxed pBR322
Description: The enzymatic assay was carried using commercial topoisomerases type II as previously described by Alt et al.[55] with some modifications.
Briefly, 1 U of the enzyme (gyrase or topo IV, Inspiralis. Norwich, UK) isolated from S. aureus converts […] of relaxed pBR322 DNA to the supercoiled form (gyrase) or decatenates 200 ng of kinetoplast DNA (topo IV). […] The reactions were terminated by adding an equal volume of STEB buffer (40% sucrose, 100 mM Tris–HCl pH 8, 10 mM EDTA, and 0.5 mg/mL bromophenol blue), followed by extraction with 1 volume of chloroform/isoamyl alcohol (24:1). The samples were vortexed and centrifuged, and 20 μL of the aqueous phase of each sample was loaded onto a 1% agarose gel and left for 30 min prior to electrophoresis to allow diffusion of salt. […] Gels were stained with ethidium bromide and visualized under UV light in a transilluminator (ChemiDoc MP, Bio Rad).

[1] = biological target: T1, S. aureus topoisomerase IV (Staphylococcus aureus, UniProt P0C1S7+P0C1U9); assay: Topoisomerase IV decatenation assay; format: biochemical; conditions: decatenation of kinetoplast DNA; read-out: IC50 S. aureus topoisomerase IV (converted)
T1 construct: purchased Inspiralis, Norwich, UK
T1 sequence (P0C1U9 whole entry): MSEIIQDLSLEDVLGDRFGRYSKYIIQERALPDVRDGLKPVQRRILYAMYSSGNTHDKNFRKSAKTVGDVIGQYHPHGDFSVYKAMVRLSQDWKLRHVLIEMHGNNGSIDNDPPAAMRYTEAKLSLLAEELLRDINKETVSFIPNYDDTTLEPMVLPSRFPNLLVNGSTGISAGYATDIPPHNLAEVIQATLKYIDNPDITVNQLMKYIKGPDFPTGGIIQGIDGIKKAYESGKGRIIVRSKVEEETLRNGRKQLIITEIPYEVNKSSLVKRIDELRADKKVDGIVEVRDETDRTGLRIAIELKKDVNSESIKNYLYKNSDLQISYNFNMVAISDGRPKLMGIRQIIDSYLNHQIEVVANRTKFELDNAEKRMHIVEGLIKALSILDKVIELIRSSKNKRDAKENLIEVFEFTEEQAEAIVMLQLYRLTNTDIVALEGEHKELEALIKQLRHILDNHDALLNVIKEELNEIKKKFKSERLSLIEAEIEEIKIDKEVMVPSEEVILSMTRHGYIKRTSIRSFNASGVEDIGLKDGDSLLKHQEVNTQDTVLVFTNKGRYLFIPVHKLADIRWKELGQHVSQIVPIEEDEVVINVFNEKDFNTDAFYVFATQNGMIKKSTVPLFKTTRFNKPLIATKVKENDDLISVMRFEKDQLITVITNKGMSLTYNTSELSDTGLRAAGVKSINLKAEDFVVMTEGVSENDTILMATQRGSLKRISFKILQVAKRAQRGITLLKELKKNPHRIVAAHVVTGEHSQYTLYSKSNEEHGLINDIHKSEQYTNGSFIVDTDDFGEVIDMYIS
T1 sequence (P0C1S7 whole entry): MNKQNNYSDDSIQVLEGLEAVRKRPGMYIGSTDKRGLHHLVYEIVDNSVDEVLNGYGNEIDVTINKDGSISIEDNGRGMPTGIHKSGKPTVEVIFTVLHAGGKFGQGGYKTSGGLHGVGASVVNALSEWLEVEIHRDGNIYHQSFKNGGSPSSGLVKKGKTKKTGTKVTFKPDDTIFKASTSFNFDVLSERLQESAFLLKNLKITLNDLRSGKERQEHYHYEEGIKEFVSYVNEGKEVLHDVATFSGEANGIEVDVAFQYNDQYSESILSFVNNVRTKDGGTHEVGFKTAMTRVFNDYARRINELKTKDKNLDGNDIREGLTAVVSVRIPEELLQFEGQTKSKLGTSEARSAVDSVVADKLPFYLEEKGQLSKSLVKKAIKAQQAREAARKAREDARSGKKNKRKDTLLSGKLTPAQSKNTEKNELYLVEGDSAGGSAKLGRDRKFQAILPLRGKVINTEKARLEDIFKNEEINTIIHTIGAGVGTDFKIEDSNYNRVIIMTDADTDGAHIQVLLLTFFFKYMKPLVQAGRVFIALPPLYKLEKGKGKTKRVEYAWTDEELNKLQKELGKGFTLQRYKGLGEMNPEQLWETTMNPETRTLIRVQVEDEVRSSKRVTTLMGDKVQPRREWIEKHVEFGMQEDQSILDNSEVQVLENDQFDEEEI
Description: Briefly, 1 U of the enzyme (gyrase or topo IV, Inspiralis. Norwich, UK) isolated from S. aureus converts 0.5 mg of relaxed pBR322 DNA to the supercoiled form (gyrase) or decatenates 200 ng of kinetoplast DNA (topo IV). […] The reactions were terminated by adding an equal volume of STEB buffer (40% sucrose, 100 mM Tris–HCl pH 8, 10 mM EDTA, and 0.5 mg/mL bromophenol blue), followed by extraction with 1 volume of chloroform/isoamyl alcohol (24:1). The samples were vortexed and centrifuged, and 20 μL of the aqueous phase of each sample was loaded onto a 1% agarose gel and left for 30 min prior to electrophoresis to allow diffusion of salt. […] Gels were stained with ethidium bromide and visualized under UV light in a transilluminator (ChemiDoc MP, Bio Rad).

P. aeruginosa ATCC 15442 = assay: Bacterial growth curve assay (OD600, 18 h); format: cell-based, Pseudomonas aeruginosa; conditions: P. aeruginosa ATCC 15442, 18 h
E. coli ATCC 25922 = assay: Bacterial growth curve assay (OD600, 18 h); format: cell-based, Escherichia coli
[2] = system: P. aeruginosa ATCC 15442 and E. coli ATCC 25922; assay: MIC, standard Gram-negative rods as a panel; format: cell-based; conditions: P. aeruginosa ATCC 15442, E. coli ATCC 25922; for MIC: read-out: MIC against standard Gram-negative rods (range over strains)
[3] = system: E. coli ATCC 25922 biofilm; assay: Biofilm eradication assay (crystal violet); format: cell-based, Escherichia coli; conditions: 4 MIC
Description: (§1) Three bacterial strains E. coli ATCC 25922, P. aeruginosa ATCC 15442, and S. aureus ATCC 6538 were used to assign biofilm eradication properties of compounds 5, 10, 11, and CP as the reference drug. To quantify the biomass of the bacteria biofilm, the crystal violet method was used with some modifications.[52] The bacteria were incubated to the mid-log phase, diluted to 103 cfu/mL in brain–heart infusion medium, and seeded in a 96-well plate. Bacterial biofilms were formed by overnight incubation at 37 °C with rotation at 140 rpm. After biofilm formation, all wells were washed with PBS to remove nonadherent bacteria cells. […] The biofilms with tested substances were incubated for 20 h at 37 °C with shaking at 140 rpm. The bacterial biofilm was stained with 0.1% (v/v) CV for 10 min. Afterward, the biofilm was rinsed with PBS and dried. To solubilize the adsorbed crystal violet, wells with stained biofilms were incubated in 30% acetic acid. To estimate the total biofilm biomass, optical density (OD) of the resulting solution was measured at 595 nm. Biofilm assays were repeated at least three times on different days, with two technical replicates assessed each time. A minimum eradication concentration (MBEC) was determined as the lowest concentration of compound, which could damage ≥50% of the formed biofilm structure.

[4] = system: S. aureus ATCC 6538 biofilm; assay: Biofilm eradication assay (crystal violet); format: cell-based, Staphylococcus aureus; conditions: 4–2 MIC
Description: as §1

[5] = Trypan blue exclusion assay; format: cell-based, human; conditions: human; HaCaT, 72 h, compound at IC50
Source text: (§2) To monitor cell proliferation in response to long-term conjugate treatment, the trypan-blue exclusion assay was further performed. […] Thus, they exerted a cytostatic effect on them, suppressing their growth and proliferation. […]. […] […].
(§3) Figure 9 Trypan blue assay. The effect of compounds 3, 15, and 21 on cell number in PC3 and HaCaT cells. […] Data are expressed as the mean ± SD. ***p ≤ 0.001, **p ≤ 0.002, and *p ≤ 0.01, as compared to the control.
(§4) Figure 10 Trypan blue assay. The effect of compounds 3, 15, and 21 on viability in PC3 and HaCaT cells. […] Data are expressed as the mean ± SD. ***p ≤ 0.001, **p ≤ 0.01, and *p ≤ 0.05, as compared to the control.

HaCaT cells [6] = assay: Trypan blue exclusion assay; format: cell-based, human; conditions: for Cell number (% of control) / Cell number x 10^6: 72 h, compound at IC50; for impact on the number of live human keratinocytes: compounds at their IC50 for PC3 cells (2.02, 15.7, 4.8 μM)
Source text: as §2, §3, §4

PC3 cells [7] = assay: Trypan blue exclusion assay; format: cell-based, human; conditions: PC3, 72 h, compound at IC50
Source text: as §2, §3, §4

HaCaT cells [8] = assay: Annexin V-FITC/PI binding assay, flow cytometry; format: cell-based, human; conditions: 72 h, IC50 concentration; for Dead cells / Early apoptosis / Late apoptosis / Live cells: HaCaT
Description: (§5) The PC3 and HaCaT cells were cultured and harvested under the conditions mentioned in the Cell Culture section and seeded in 12-well plates (1 × 10^5 cells per well). […] The apoptotic effect was performed using the annexin V-FITC/propidium iodide (PI) apoptosis assay kit (Becton Dickinson, Pharmingen) according to the manufacturer’s instructions and analyzed by flow cytometry (Becton Dickinson). The cells which were annexin V-FITC-positive and PI-negative were identified as early apoptotic and both annexin V-FITC- and PI-positive as late apoptotic or necrotic. The experiment was repeated three times.

PC3 cells [9] = assay: Annexin V-FITC/PI binding assay, flow cytometry; format: cell-based, human; conditions: IC50 concentration; for PC3 cells in late apoptosis or necrosis: 72 h; for Dead cells / Early apoptosis / Late apoptosis / Live cells: PC3, 72 h
Description: as §5

[10] = system: IL-6 level in HaCaT cells; assay: Interleukin-6 ELISA; format: cell-based, human; conditions: IC50 concentration, 72 h
Description: (§6) The level of interleukin-6 (IL-6) in PC3 and HaCaT cell lines was measured by commercial human IL-6 ELISA kits Diaclon SAS (Besancon Cedex, France). […] The untreated cells were used as the control. The IL-6 level in a cell culture supernatant was measured using an enzyme-linked immunosorbent assay in accordance with the manufacturer’s instruction. The experiment was repeated three times.

IL-6 level in PC3 cells = assay: Interleukin-6 ELISA; format: cell-based, human; conditions: PC3, IC50 concentration, 72 h
Description: as §6

M. tuberculosis Spec 210 = assay: microbe, parasite or virus in culture; format: cell-based, Mycobacterium tuberculosis

Sequence of S. aureus DNA gyrase (P0A0K8 whole entry): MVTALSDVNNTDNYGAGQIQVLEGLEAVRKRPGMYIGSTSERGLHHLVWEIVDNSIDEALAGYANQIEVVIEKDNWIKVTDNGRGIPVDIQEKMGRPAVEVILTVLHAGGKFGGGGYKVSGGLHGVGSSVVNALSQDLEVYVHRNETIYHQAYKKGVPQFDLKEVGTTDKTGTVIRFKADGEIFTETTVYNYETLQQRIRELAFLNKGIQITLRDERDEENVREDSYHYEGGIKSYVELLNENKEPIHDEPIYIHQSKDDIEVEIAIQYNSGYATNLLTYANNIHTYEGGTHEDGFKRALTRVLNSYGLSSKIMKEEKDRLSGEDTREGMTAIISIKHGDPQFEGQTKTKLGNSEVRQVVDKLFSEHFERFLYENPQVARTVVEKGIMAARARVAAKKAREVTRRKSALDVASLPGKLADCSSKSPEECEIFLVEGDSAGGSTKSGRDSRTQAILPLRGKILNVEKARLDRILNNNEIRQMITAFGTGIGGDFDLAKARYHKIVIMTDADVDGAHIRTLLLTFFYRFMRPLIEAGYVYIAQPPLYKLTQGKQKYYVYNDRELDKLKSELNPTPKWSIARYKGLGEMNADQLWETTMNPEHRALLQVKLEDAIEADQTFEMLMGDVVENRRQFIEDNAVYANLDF
Sequence of S. aureus DNA gyrase (P20831 whole entry): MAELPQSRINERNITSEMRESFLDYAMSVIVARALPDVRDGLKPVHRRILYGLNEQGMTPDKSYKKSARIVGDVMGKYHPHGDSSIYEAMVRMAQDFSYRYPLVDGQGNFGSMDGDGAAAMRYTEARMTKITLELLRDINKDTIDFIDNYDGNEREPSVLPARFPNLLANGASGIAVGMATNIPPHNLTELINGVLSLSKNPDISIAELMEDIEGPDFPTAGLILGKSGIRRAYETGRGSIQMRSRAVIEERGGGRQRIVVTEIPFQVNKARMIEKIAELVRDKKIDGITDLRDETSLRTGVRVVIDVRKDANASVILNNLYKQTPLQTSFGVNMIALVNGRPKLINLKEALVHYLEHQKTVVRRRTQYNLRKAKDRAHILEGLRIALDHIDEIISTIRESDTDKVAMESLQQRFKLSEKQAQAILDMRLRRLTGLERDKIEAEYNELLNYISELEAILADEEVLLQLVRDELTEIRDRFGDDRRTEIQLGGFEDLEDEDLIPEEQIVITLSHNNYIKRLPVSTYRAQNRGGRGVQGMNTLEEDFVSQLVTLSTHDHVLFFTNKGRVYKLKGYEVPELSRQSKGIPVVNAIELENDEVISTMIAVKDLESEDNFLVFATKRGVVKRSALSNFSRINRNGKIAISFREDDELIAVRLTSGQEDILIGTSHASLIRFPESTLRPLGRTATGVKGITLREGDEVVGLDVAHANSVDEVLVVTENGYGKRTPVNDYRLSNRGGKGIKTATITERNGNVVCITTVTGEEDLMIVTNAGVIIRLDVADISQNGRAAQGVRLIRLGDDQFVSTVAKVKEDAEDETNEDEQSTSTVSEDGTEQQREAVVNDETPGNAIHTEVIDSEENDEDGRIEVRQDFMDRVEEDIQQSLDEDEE

O=C(O)c1cn(C2CC2)c2cc(N3CCN(C(=O)CCCBr)CC3)c(F)cc2c1=O [Compound 10, 7-[4-(4-Bromobutyryl)-piperazin-1-yl]-1-cyclopropyl-6-fluoro-4-oxo-1,4-dihydro-quinoline-3-carboxylic Acid]
IC50 (S. aureus DNA gyrase): 16.4 µM
IC50 [1]: 10.4 µM
dose that fully inhibited bacterial growth (P. aeruginosa ATCC 15442): ≥ 0.2 µg/mL
lag phase elongated to (E. coli ATCC 25922; E. coli, 0.006 μg/mL): 9 h
share of CP potency kept against standard Gram-negative rods [2]: 60%
MIC [2]: 0.025 to 0.1 µg/mL (≈ 0.052 to 0.208 µM)

O=C(O)c1cn(C2CC2)c2cc(N3CCN(C(=O)CCCCBr)CC3)c(F)cc2c1=O [Compound 11, 7-[4-(5-Bromopentanoyl)-piperazin-1-yl]-1-cyclopropyl-6-fluoro-4-oxo-1,4-dihydro-quinoline-3-carboxylic Acid]
IC50 (S. aureus DNA gyrase): 16.2 µM
IC50 [1]: 12.1 µM
dose that fully inhibited bacterial growth (P. aeruginosa ATCC 15442): ≥ 0.2 µg/mL
concentration that inhibited bacterial cell growth (E. coli ATCC 25922; E. coli ATCC 25922, 18 h): ≥ 0.025 µg/mL
eradication of the biofilm formed by E. coli [3]: approx. 20%
elimination of the mature biofilm of S. aureus ATCC 6538 [4]: 19–25%
share of CP potency kept against standard Gram-negative rods [2]: 60%
MIC [2]: 0.025 to 0.1 µg/mL (≈ 0.0506 to 0.202 µM)
melting point: 225.7 to 226.2 °C

O=C(O)c1cn(C2CC2)c2cc(N3CCN(C(=O)CCC(F)(F)F)CC3)c(F)cc2c1=O [Compound 15, 7-[4-(4,4,4-Trifluorobutyryl)-piperazin-1-yl]-1-cyclopropyl-6-fluoro-4-oxo-1,4-dihydro-quinoline-3-carboxylic Acid]
viability at 72 h [5]: 90 ± 3.04%
Cell number (% of control) (HaCaT cells [6]): 48.38 % of control
Cell number x 10^6 (HaCaT cells [6]): 0.8 ± 0.10 x 10^6
impact on the number of live human keratinocytes (HaCaT cells [6]): negligible impact
Cell number (% of control) (PC3 cells [7]): 12.04 % of control
Cell number x 10^6 (PC3 cells [7]): 0.3 ± 0.08 x 10^6
Viability (%) (PC3 cells [7]): 82 ± 2.64%
HaCaT cells in late apoptosis/necrosis (HaCaT cells [8]): did not indicate appreciable apoptosis-inducing action
Dead cells (HaCaT cells [8]): 0.3 ± 0.01%
Early apoptosis (HaCaT cells [8]): 11.63 ± 2.93%
Late apoptosis (HaCaT cells [8]): 0.77 ± 0.05%
Live cells (HaCaT cells [8]): 87.32 ± 2.20%
PC3 cells in late apoptosis or necrosis (PC3 cells [9]): 37.64%
Dead cells (PC3 cells [9]): 21.15 ± 3.29%
Early apoptosis (PC3 cells [9]): 1.15 ± 0.10%
Late apoptosis (PC3 cells [9]): 16.49 ± 2.65%
Live cells (PC3 cells [9]): 61.21 ± 2.06%
effect on IL-6 in human keratinocytes [10]: No significant pro- or anti-inflammatory properties
decrease of IL-6 release as compared to the control (IL-6 level in PC3 cells): 1.9 times

O=C(O)c1cn(C2CC2)c2cc(N3CCN(CCCCCCCCCCC(=O)N4CCN(c5cc6c(cc5F)c(=O)c(C(=O)O)cn6C5CC5)CC4)CC3)c(F)cc2c1=O [Compound 21, CP–Undecanoyl–CP Dimer]
fold more effective than the reference tuberculostatics (M. tuberculosis Spec 210): 8–32 fold
viability at 72 h [5]: 94 ± 4.01%
Cell number (% of control) (HaCaT cells [6]): 19.35 % of control
Cell number x 10^6 (HaCaT cells [6]): 0.3 ± 0.01 x 10^6
impact on the number of live human keratinocytes (HaCaT cells [6]): negligible impact
Cell number (% of control) (PC3 cells [7]): 6.22 % of control
Cell number x 10^6 (PC3 cells [7]): 0.2 ± 0.03 x 10^6
Viability (%) (PC3 cells [7]): 78 ± 1.50%
HaCaT cells in late apoptosis/necrosis (HaCaT cells [8]): 34.95%
Dead cells (HaCaT cells [8]): 14.24 ± 3.78%
Early apoptosis (HaCaT cells [8]): 10.52 ± 1.07%
Late apoptosis (HaCaT cells [8]): 20.71 ± 4.34%
Live cells (HaCaT cells [8]): 54.53 ± 3.34%
PC3 cells in late apoptosis or necrosis (PC3 cells [9]): 69.29%
Dead cells (PC3 cells [9]): 52.91 ± 3.99%
Early apoptosis (PC3 cells [9]): 28.22 ± 0.98% and 28.22%
Late apoptosis (PC3 cells [9]): 16.28 ± 2.80%
Live cells (PC3 cells [9]): 2.59 ± 0.20%
effect on IL-6 in human keratinocytes [10]: stimulated human keratinocytes to produce IL-6
